Key:
[1] = Transient Transfection Assay: In a transient set-up, a Huh-7 lunet hepatoma cell line was transiently transfected with an autonomously replicating RNA encoding a bi-cistronic expression construct. This construct comprises a firefly luciferase reporter gene preceding the NS3-NS5B subgenomic region of HCV (genotype 1a H77 or 1b Con1). Translation of the HCV subgenomic region is mediated by an internal ribosome entry site of encephalomyocarditis virus. The construct is furthermore flanked by 5' and 3' untranslated regions of HCV (genotype 1a H77 or 1b Con 1, respectively), which allow for replication of the RNA. In addition to the wild-type constructs, site-directed mutations were introduced into the transient HCV genotype 1b replicon in the gene encoding for the non-structural protein 5A (NS5A). More precisely, amino acid residues 28, 30, 31 and 93 in NS5A were independently altered. Cells were plated in 384 well plates in the presence of test and control compounds, which were added in various concentrations. Following an incubation of two days, replication of the HCV subgenomic replicon RNA was measured by assaying luciferase activity (using standard luciferase assay substrates and reagents and a Perkin Elmer ViewLux™ ultraHTS microplate imager).; assay type: cell-based
[2] = Stable Transfection Assay: The assay utilized the stably transfected cell line Huh-7 luc/neo (hereafter referred to as Huh-Luc). This cell line harbors an RNA encoding a bicistronic expression construct comprising the wild type NS3-NS5B regions of HCV type 1b translated from an Internal Ribosome Entry Site (IRES) from encephalomyocarditis virus (EMCV), preceded by a reporter portion (FfL-luciferase), and a selectable marker portion (neoR, neomycine phosphotransferase). The construct is flanked by 5' and 3' NTRs (non-translated regions) from HCV type 1b. Continued culture of the replicon cells in the presence of G418 (neoR) is dependent on the replication of the HCV RNA. The stably transfected replicon cells that replicate HCV RNA autonomously and to high levels, encoding inter alia luciferase, were used for screening the antiviral compounds.

| SMILES | EC50 [1] | EC50 [2] |
| --- | --- | --- |
| COC(=O)N[C@H](C(=O)N1CCC[C@H]1c1ncc(-c2ccc3cc(-c4ccc5nc([C@@H]6CCCN6C(=O)[C@@H](NC(=O)OC)[C@@H](C)OC)[nH]c5c4)ccc3c2)[nH]1)C(C)C | 7 pM |  |
| COC(=O)N[C@H](C(=O)N1CCC[C@H]1c1nc2ccc(-c3ccc4cc(-c5cnc([C@@H]6CCCN6C(=O)[C@@H](NC(=O)OC)[C@@H](C)OC)[nH]5)ccc4c3)cc2[nH]1)C(C)C |  | 6 pM |

Reference: ChEMBL document CHEMBL3886917, “Benzimidazole-imidazole derivatives” (2016)
